According to ChEMBL document CHEMBL1201862, “PubChem BioAssay data set” (2004):
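All cell lines were grown in 96-well plates and treated with compound for 48 hours. GI50 = concentration required for 50% inhibition of growth.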 Calls of active or inactive are those of the source. Cut-off read from the data, not from the text of the source: active = GI50 up to about 1.1 µM and inactive = higher.

How the values were obtained:
Assay in all cases: NCI anticancer screen, dose series, 48 h
OVCAR-4 = tested on: OVCAR-4
Malme-3M = tested on: Malme-3M
SF-295 = tested on: SF-295
COLO 205 = tested on: COLO 205
SF-268 = tested on: SF-268
MOLT-4 = tested on: MOLT-4
MDA-N = tested on: MDA-N
CCRF-CEM = tested on: CCRF-CEM
Hs-578T = tested on: Hs-578T
SN12C = tested on: SN12C
HCC 2998 = tested on: HCC 2998
UO-31 = tested on: UO-31
SW-620 = tested on: SW-620
CAKI-1 = tested on: CAKI-1
ACHN = tested on: ACHN
LOX IMVI = tested on: LOX IMVI
OVCAR-3 = tested on: OVCAR-3
NCI/ADR-RES = tested on: NCI/ADR-RES
A498 = tested on: A498
OVCAR-5 = tested on: OVCAR-5

Row | Compound | GI50 (OVCAR-4) | GI50 (Malme-3M) | GI50 (SF-295) | GI50 (COLO 205) | GI50 (SF-268) | GI50 (MOLT-4) | GI50 (MDA-N) | GI50 (CCRF-CEM) | GI50 (Hs-578T) | GI50 (SN12C) | GI50 (HCC 2998) | GI50 (UO-31) | GI50 (SW-620) | GI50 (CAKI-1) | GI50 (ACHN) | GI50 (LOX IMVI) | GI50 (OVCAR-3) | GI50 (NCI/ADR-RES) | GI50 (A498) | GI50 (OVCAR-5)
1 | C(=N\NC1=NCCN1)/c1cccc2cc3ccncc3nc12 | 3.33 µM (inactive) | 10.6 µM (inactive) | 3.04 µM (inactive) | 1.21 µM (inactive) | 3.85 µM (inactive) | 1.69 µM (inactive) | 2.89 µM (inactive) | 1.1 µM (active) | 3.94 µM (inactive) | 3.15 µM (inactive) | 5.71 µM (inactive) | 3.21 µM (inactive) | 1.94 µM (inactive) | 2.84 µM (inactive) | 2.84 µM (inactive) | 1.73 µM (inactive) | 4.81 µM (inactive) | 3.24 µM (inactive) | 11.6 µM (inactive) | –
2 | CCOC(=O)Nn1cnnc1Cc1ccccc1 | > 100 µM (inactive) | > 100 µM (inactive) | > 100 µM (inactive) | > 100 µM (inactive) | > 100 µM (inactive) | > 100 µM (inactive) | > 100 µM (inactive) | > 100 µM (inactive) | 20 µM (inactive) | > 100 µM (inactive) | > 100 µM (inactive) | > 100 µM (inactive) | > 100 µM (inactive) | > 100 µM (inactive) | > 100 µM (inactive) | > 100 µM (inactive) | > 100 µM (inactive) | > 100 µM (inactive) | > 100 µM (inactive) | > 100 µM (inactive)
3 | COc1ccc(/C=C2\CCC(CNc3cc(C)on3)C2=O)cc1 (stereo not drawn) | > 100 µM (inactive) | > 100 µM (inactive) | 74.6 µM (inactive) | > 100 µM (inactive) | > 70 µM (inactive) | > 100 µM (inactive) | > 100 µM (inactive) | > 100 µM (inactive) | 57.9 µM (inactive) | > 100 µM (inactive) | > 44.9 µM (inactive) | > 93.1 µM (inactive) | > 100 µM (inactive) | > 100 µM (inactive) | > 100 µM (inactive) | > 100 µM (inactive) | > 100 µM (inactive) | > 54 µM (inactive) | > 72.4 µM (inactive) | > 100 µM (inactive)
4 | CC(=O)OCC1OC(n2c3c(cc(C#N)c2=O)CCCCCC3)C(OC(C)=O)C(OC(C)=O)C1OC(C)=O (stereo not drawn) | > 100 µM (inactive) | > 100 µM (inactive) | > 100 µM (inactive) | > 100 µM (inactive) | > 100 µM (inactive) | > 100 µM (inactive) | > 100 µM (inactive) | > 100 µM (inactive) | > 100 µM (inactive) | > 100 µM (inactive) | > 100 µM (inactive) | > 100 µM (inactive) | – | > 100 µM (inactive) | > 100 µM (inactive) | > 100 µM (inactive) | > 100 µM (inactive) | > 100 µM (inactive) | > 100 µM (inactive) | > 100 µM (inactive)
5 | C=C(C)CCC1C=[N+]([O-])OC(C)(C)C1(C)C (stereo not drawn) | – | – | > 100 µM (inactive) | > 100 µM (inactive) | > 100 µM (inactive) | > 100 µM (inactive) | > 100 µM (inactive) | 33.3 µM (inactive) | > 100 µM (inactive) | > 100 µM (inactive) | > 100 µM (inactive) | > 100 µM (inactive) | 39 µM (inactive) | > 100 µM (inactive) | > 100 µM (inactive) | 80 µM (inactive) | > 100 µM (inactive) | > 100 µM (inactive) | > 100 µM (inactive) | > 100 µM (inactive)
6 | c1ccc(CN2C3C4N(Cc5ccccc5)C2C2N(Cc5ccccc5)C(C(N2Cc2ccccc2)N4Cc2ccccc2)N3Cc2ccccc2)cc1 | – | – | > 100 µM (inactive) | > 100 µM (inactive) | > 100 µM (inactive) | > 100 µM (inactive) | > 100 µM (inactive) | 40.1 µM (inactive) | > 100 µM (inactive) | > 100 µM (inactive) | > 100 µM (inactive) | – | > 100 µM (inactive) | > 100 µM (inactive) | > 100 µM (inactive) | > 100 µM (inactive) | > 100 µM (inactive) | > 100 µM (inactive) | > 100 µM (inactive) | > 100 µM (inactive)
7 | CC(=O)OC1CC[C@@]2(C)C(CC[C@]3(C)C2CC=C2[C@@H]4C(C)[C@H](C)CCC4(C)CCC23C)[C@@]1(C)C(=O)O (stereo partly drawn) | 26 µM (inactive) | 24.2 µM (inactive) | 17.6 µM (inactive) | 20.4 µM (inactive) | 23.5 µM (inactive) | 26.8 µM (inactive) | 20.9 µM (inactive) | 24.9 µM (inactive) | 25.7 µM (inactive) | 21.5 µM (inactive) | 19.1 µM (inactive) | 20.7 µM (inactive) | 21.9 µM (inactive) | 18.2 µM (inactive) | 18.2 µM (inactive) | 20.9 µM (inactive) | 18.9 µM (inactive) | 17 µM (inactive) | 19.5 µM (inactive) | 18 µM (inactive)
